Key:
Uromyces appendiculatus = experiment: In vivo preventive test on Uromyces appendiculatus (bean rust); details: preventive, bean plants, dose of 500 ppm, grading 11 days after contamination
Description: Bean plants (“Saxa” variety), sown in starter cups on a 50/50 peat soil-pozzolana substrate and grown at 24° C., are treated at the 2-leaf stage (9 cm height) by spraying with the active ingredient prepared as described above. Plants, used as controls, are treated with the mixture of acetone/tween/DMSO/water not containing the active material. After 24 hours, the plants are contaminated by spraying the leaves with an aqueous suspension of Uromyces appendiculatus spores (150 000 spores per ml). The spores are collected from infected plants and are suspended in water containing 2.5 ml/1 of Tween 80 at 10%. […] Grading (% of efficacy) is carried out 11 days after the contamination, in comparison with the control plants.

Puccinia recondita = experiment: In vivo preventive test on Puccinia recondita (brown rust on wheat); details: 500 ppm, wheat plants sprayed 24 h before contamination, graded 12 days after contamination
Description: Wheat plants (“Scipion” variety), sown in starter cups on a 50/50 peat soil-pozzolana substrate and grown at 22° C., are treated at the 1-leaf stage (10 cm height) by spraying with the active ingredient prepared as described above. Plants, used as controls, are treated with the mixture of acetone/tween/DMSO/water not containing the active material. After 24 hours, the plants are contaminated by spraying the leaves with an aqueous suspension of Puccinia recondita spores (100 000 spores per ml). The spores are collected from an infected plant and are suspended in water to containing 2.5 ml/l of Tween 80 at 10%. […] Grading (% of efficacy) is carried out 12 days after the contamination, in comparison with the control plants.

Alternaria brassicae = experiment: In vivo preventive test on Alternaria brassicae (leaf spot on radish); details: 500 ppm, radish plants sprayed 24 h before contamination, graded 6 days after contamination
Description: Radish plants (“Pernod Clair” variety), sown in starter cups on a 50/50 peat soil-pozzolana substrate and grown at 17° C., are treated at the cotyledon stage by spraying with the active ingredient prepared as described above. Plants, used as controls, are treated with the mixture of acetone/tween/DMSO/water not containing the active material. After 24 hours, the plants are contaminated by spraying the cotyledons with an aqueous suspension of Alternaria brassicae spores (50 000 spores per ml). The spores are collected from a 15-day-old culture. The contaminated radish plants are incubated at 20° C. and at 100% relative humidity. Grading (% of efficacy) is carried out 6 days after the contamination, in comparison with the control plants.

Septoria tritici = experiment: In vivo preventive test on Septoria tritici (leaf spot on wheat); details: 500 ppm, wheat plants sprayed 24 h before contamination, graded 24 days after contamination
Description: Wheat plants (“Scipion” variety), sown in starter cups on a 50/50 peat soil-pozzolana substrate and grown at 22° C., are treated at the 1-leaf stage (10 cm height) by spraying with the active ingredient prepared as described above. Plants, used as controls, are treated with the mixture of acetone/tween/DMSO/water not containing the active material. After 24 hours, the plants are contaminated by spraying the leaves with an aqueous suspension of cryopreserved Septoria tritici spores (500 000 spores per ml). The contaminated wheat plants are incubated for 72 hours at 18° C. and at 100% relative humidity, and then for 21 days at 90% relative humidity. Grading (% of efficacy) is carried out 24 days after the contamination, in comparison with the control plants.

Botrytis cinerea = experiment: In vivo preventive test on Botrytis cinerea (grey mould); details: 500 ppm, gherkin plants sprayed 24 h before contamination, graded 4 to 5 days after contamination
Description: Gherkin plants (“Vert petit de Paris” variety), sown in starter cups on a 50/50 peat soil-pozzolana substrate and grown at 24° C., are treated at the Z11 cotyledon stage by spraying with the active ingredient prepared as described above. Plants, used as controls, are treated with the mixture of acetone/tween/DMSO/water not containing the active material. After 24 hours, the plants are contaminated by spraying the cotyledons with an aqueous suspension of cryopreserved Botrytis cinerea spores (50 000 spores per ml). The spores are suspended in a nutrient solution composed of 10 g/L of PDB, 50 g/L of D-Fructose, 2 g/L of NH4NO3 and 1 g/L of KH2PO4. The contaminated gherkin plants are incubated at 17° C. and at 90% relative humidity.

Sphaerotheca fuliginea = experiment: In vivo preventive test on Sphaerotheca fuliginea (powdery mildew on cucurbits); details: 500 ppm, gherkin plants sprayed 24 h before contamination, graded 12 days after contamination
Description: Gherkin plants (“Vert petit de Paris” variety), sown in starter cups on a 50/50 peat soil-pozzolana substrate and grown at 24° C., are treated at the Z11 cotyledon stage by spraying with the active ingredient prepared as described above. Plants, used as controls, are treated with the mixture of acetone/tween/DMSO/water not containing the active material. After 24 hours, the plants are contaminated by spraying the cotyledons with an aqueous suspension of Sphaerotheca fuliginea spores (100 000 spores per ml). The spores are collected from infected plants. […] Grading (% of efficacy) is carried out 12 days after the contamination, in comparison with the control plants.

Pyrenophora teres = experiment: In vivo preventive test on Pyrenophora teres (net blotch on barley); details: graded 14 days after contamination; for Eff. %: 500 ppm, barley plants sprayed 24 h before contamination; for Efficacy: 100 ppm, barley plants, comparison with prior-art compound
Description: Barley plants (“Plaisant” variety), sown in starter cups on a 50/50 peat soil-pozzolana substrate and grown at 22° C., are treated at the 1-leaf stage (10 cm height) by spraying with the active ingredient prepared as described above. Plants, used as controls, are treated with the mixture of acetone/tween/DMSO/water not containing the active material. After 24 hours, the plants are contaminated by spraying the leaves with an aqueous suspension of Pyrenophora teres spores (12 000 spores per ml). The spores are collected from a 12-day-old culture. […] Grading (% of efficacy) is carried out 14 days after the contamination, in comparison with the control plants.

Phakopsora pachyrhizi = experiment: In vivo Phakopsora test (soybeans)/preventive; details: 10 ppm, soybean plants, preventive, evaluated 7 days after inoculation
Description: To produce a suitable preparation of active compound, 1 part by weight of active compound is mixed with the stated amounts of solvent and emulsifier, and the concentrate is diluted with water to the desired concentration. To test for preventive activity, young plants are sprayed with the preparation of active compound at the stated rate of application. After the spray coating has dried on, the plants are inoculated with an aqueous spore suspension of the causal agent of soybean rust (Phakopsora pachyrhizi) and stay for 24 h without light in an incubation cabinet at approximately 24° C. and a relative atmospheric humidity of 95%. The plants remain in the incubation cabinet at approximately 24° C. and a relative atmospheric humidity of approximately 80% and a day/night interval of 12 h.

[1] = logP by HPLC on reversed phase columns (EEC directive 79/831 Annex V.A8); format: physicochemical; details: method [a]: LC-MS at pH 2.7, 0.1% formic acid in water / acetonitrile; compounds of formula (I), Table 1
Phytophthora infestans = format: in vivo; details: 500 ppm, tomato plants sprayed 24 h before contamination, graded 5 days after contamination
Pyricularia oryzae = format: in vivo; details: 500 ppm, rice plants sprayed 24 h before contamination, graded 6 days after contamination
[2] = test system: Fusarium nivale (var. majus); experiment: In vivo Fusarium nivale (var. majus) test (wheat)/preventive; details: 500 ppm, wheat plants, preventive, evaluated 5 days after inoculation
Description: • Solvent: 49 parts by weight of N,N-dimethylacetamide • Emulsifier: 1 part by weight of alkylaryl polyglycol ether To produce a suitable preparation of active compound, 1 part by weight of active compound or active compound combination is mixed with the stated amounts of solvent and emulsifier, and the concentrate is diluted with water to the desired concentration. To test for preventive activity, young plants are sprayed with the preparation of active compound or active compound combination at the stated rate of application. After the spray coating has been dried, the plants are slightly injured by using a sandblast and afterwards they are sprayed with a conidia suspension of Fusarium nivale (var. majus). The plants are placed in the greenhouse under a translucent incubation cabinet at a temperature of approximately 10° C. and a relative atmospheric humidity of approximately 100%.

Q: Which Eff. % (Uromyces appendiculatus) does the source give for `CC(C)C1Cc2cccc(NC(=O)c3cn(C)nc3C(F)F)c2C1` (centres unmarked) [Example 3] here?
A: 100%

Q: And the Eff. % (Puccinia recondita)?
A: 94%

Q: And the Eff. % (Alternaria brassicae)?
A: 92%

Q: What about the Eff. % (Septoria tritici) of the same compound?
A: 96%

Q: And the Eff. % (Botrytis cinerea)?
A: 85%

Q: What about the Eff. % (Sphaerotheca fuliginea) of the same compound?
A: 100%

Q: And the Eff. % (Pyrenophora teres)?
A: 97%

Q: With `CC1c2c(NC(=O)c3cn(C)nc3C(F)F)cccc2C(C)(C)C1C` (centres unmarked) [Example 9] as the compound, how does the Eff. % (Uromyces appendiculatus) read?
A: 100%

Q: And the Eff. % (Puccinia recondita)?
A: 100%

Q: What about the Eff. % (Alternaria brassicae) of the same compound?
A: 94%

Q: And the Eff. % (Septoria tritici)?
A: 90%

Q: What about the Eff. % (Phakopsora pachyrhizi) of the same compound?
A: 84%

Q: What about the Eff. % (Botrytis cinerea) of the same compound?
A: 100%

Q: And the Eff. % (Sphaerotheca fuliginea)?
A: 100%

Q: And the Eff. % (Pyrenophora teres)?
A: 97%

Q: Which results are given for `Cc1nn(C)c(C)c1C(=O)Nc1cccc2c1C(C)C(C)C2(C)C` (centres unmarked) [Example 16]?
A: Eff. % (Uromyces appendiculatus): 100%; Eff. % (Puccinia recondita): 98%; logP [1]: 3.15[a]; Eff. % (Botrytis cinerea): 100%

Q: Which Eff. % (Puccinia recondita) does the source give for `CC1c2cccc(NC(=O)c3cn(C)nc3C(F)F)c2CC1(C)C` (centres unmarked) [Example 5] here?
A: 100%

Q: And the Eff. % (Alternaria brassicae)?
A: 71%

Q: And the Eff. % (Septoria tritici)?
A: 91%

Q: What about the Eff. % (Botrytis cinerea) of the same compound?
A: 88%

Q: And the Eff. % (Sphaerotheca fuliginea)?
A: 98%

Q: What about the Eff. % (Phytophthora infestans) of the same compound?
A: 89%

Q: What does the source list for `Cc1nn(C)c(F)c1C(=O)Nc1cccc2c1C(C)C(C)C2(C)C` (centres unmarked) [Example 33]?
A: Eff. % (Uromyces appendiculatus): 100%; Eff. % (Puccinia recondita): 98%; Eff. % (Alternaria brassicae): 92%; Eff. % (Septoria tritici): 97%; logP [1]: 3.52[a]; Eff. % (Botrytis cinerea): 100%; Eff. % (Sphaerotheca fuliginea): 100%; Efficacy (Pyrenophora teres): at least 80%; Eff. % (Pyrenophora teres): 97%

Q: With `Cc1nn(C)c(F)c1C(=O)Nc1cccc2c1CC(C)C2(C)C` (centres unmarked) [Example 8] as the compound, how does the Eff. % (Uromyces appendiculatus) read?
A: 100%

Q: And the Eff. % (Puccinia recondita)?
A: 100%

Q: And the Eff. % (Alternaria brassicae)?
A: 79%

Q: And the logP [1]?
A: 3.52[a]

Q: What about the Eff. % (Pyricularia oryzae) of the same compound?
A: 83%

Q: What about the Efficacy (Pyrenophora teres) of the same compound?
A: 83%

Q: What does the source list for `CC1Cc2c(NC(=O)c3cnn(C)c3C(F)(F)F)cccc2C1(C)C` (centres unmarked) [Example 17]?
A: Eff. % (Uromyces appendiculatus): 100%; Eff. % (Puccinia recondita): 98%; logP [1]: 3.73[a]; Eff. % (Botrytis cinerea): 94%

Q: Which results are given for `Cc1nn(C)c(C)c1C(=O)Nc1cccc2c1CC(C)(C)C2C` (centres unmarked) [Example 13]?
A: Eff. % (Uromyces appendiculatus): 100%; Eff. % (Puccinia recondita): 100%; Eff. % (Alternaria brassicae): 93%; logP [1]: 3.13[a]; Eff. % (Pyricularia oryzae): 83%; Eff. % (Pyrenophora teres): 75%

Q: Which results are given for `CCC1Cc2cccc(NC(=O)c3cn(C)nc3C(F)F)c2C1` (centres unmarked) [Example 27]?
A: Eff. % (Uromyces appendiculatus): 100%; Eff. % (Puccinia recondita): 100%; Eff. % (Alternaria brassicae): 79%; Eff. % (Septoria tritici): 100%; logP [1]: 3.35[a]; Eff. % (Sphaerotheca fuliginea): 100%; Eff. % (Pyrenophora teres): 97%

Q: For `CC1Cc2c(NC(=O)c3cn(C)nc3C(F)F)cccc2C1(C)C` (centres unmarked) [Example 6], which Eff. % (Uromyces appendiculatus) is on record?
A: 98%

Q: What about the Eff. % (Puccinia recondita) of the same compound?
A: 100%

Q: What about the Eff. % (Septoria tritici) of the same compound?
A: 95%

Q: What about the logP [1] of the same compound?
A: 3.55[a]

Q: And the Eff. % (Phakopsora pachyrhizi)?
A: 96%

Q: What about the Eff. % (Botrytis cinerea) of the same compound?
A: 95%

Q: What about the Eff. % (Sphaerotheca fuliginea) of the same compound?
A: 100%

Q: Which results are given for `CC1Cc2c(NC(=S)c3cn(C)nc3C(F)F)cccc2C1(C)C` (centres unmarked) [Example 28]?
A: Eff. % (Uromyces appendiculatus): 100%; Eff. % (Septoria tritici): 83%; logP [1]: 3.85[a]; Eff. % (Sphaerotheca fuliginea): 100%; Eff. % (Pyricularia oryzae): 93%

Q: What does the source list for `CCC1Cc2c(NC(=O)c3c(C)nn(C)c3F)cccc2C1(C)C` (centres unmarked) [Example 37]?
A: Eff. % (Uromyces appendiculatus): 100%; Eff. % (Puccinia recondita): 100%; Eff. % (Alternaria brassicae): 90%; Eff. % (Septoria tritici): 71%; logP [1]: 3.99[a]; Eff. % (Sphaerotheca fuliginea): 100%; Eff. % (Pyrenophora teres): 83%

Q: What does the source list for `CC(C)OC1Cc2cccc(NC(=O)c3cn(C)nc3C(F)F)c2C1` (centres unmarked) [Example 2]?
A: Eff. % (Uromyces appendiculatus): 100%; Eff. % (Puccinia recondita): 100%; Eff. % (Septoria tritici): 90%; Eff. % [2]: 75%
